Assay results as given in PMC5779714, “Metallochaperone UreG serves as a new target for design of urease inhibitor: A novel strategy for development of antimicrobials” (PLoS Biology, 2018).
Where “and” joins values, the source holds several entries; their conditions need not be identical. Equal values may be shown once. Read-outs that look alike come from different tables or passages of the source.

Key:
UreG [1] = biological target: T1, UreG (Helicobacter pylori, UniProt Q09066); test: biochemical; format: biochemical, H. pylori
T1 sequence (Q09066 whole entry): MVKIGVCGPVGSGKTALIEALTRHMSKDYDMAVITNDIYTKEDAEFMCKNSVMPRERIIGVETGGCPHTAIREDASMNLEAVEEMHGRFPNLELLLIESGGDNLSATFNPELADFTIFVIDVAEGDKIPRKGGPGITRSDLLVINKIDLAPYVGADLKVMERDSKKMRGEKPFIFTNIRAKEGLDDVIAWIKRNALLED
Description: A Malachite Green Phosphate Assay Kit (Abcam) was utilized to quantify the hydrolysis of GTP by UreG under various conditions. […] GTPase activity of UreG was triggered through the addition of 10 mM KHCO3, after which the reaction was incubated at 37°C for 30 min; then, the free phosphate from hydrolysis of GTP was determined. […] To eliminate the potential effect of small compounds on malachite green assay, the assay included a subtraction of the absorbance of reaction with the same amounts of compounds but without UreG enzyme for each reading.

[2] = tested on: AGS cells with H. pylori infection; test: AGS cells with H. pylori infection, inhibitors administrated to the AGS cells (S20 Fig); format: cell-based, human; details: 10 μM administrated to AGS cells with H. pylori infection
Text: As expected, low viability of AGS with the supplement of cmpd4 and cmpd8 was observed due to the toxicity of small compounds to mammalian cells. […] (PNG) Click here for additional data file.

[3] = tested on: AGS cells exposed to H. pylori; test: Cell infection model: AGS cells exposed to H. pylori pre-cultured with inhibitors; format: cell-based, human
H. pylori = test: Growth of H. pylori in neutral and acidic brucella broth (OD600); format: cell-based
UreG [4] = biological target: T1, UreG; test: Fluorescence-quenching titration of UreG (Kd); format: binding, H. pylori
Description: (§1) Using the relation between the emission intensity at 310 nm and molecule-UreG–bound species, as well as one site-binding model, the Kd values were calculated by a logistic regression model referring to a previous report. […] All fluorescence readings were corrected for the dilution effect.

UreG [5] = biological target: T1, UreG; test: biochemical; format: binding, H. pylori
H. pylori urease = H. pylori urease (Helicobacter pylori, UniProt P14916+P69996); test: cell-based; format: cell-based; details: 20 μM compound in cultured medium; read-out: inhibition of urease activity in H. pylori cells
H. pylori urease, sequence (P14916 whole entry, looked up): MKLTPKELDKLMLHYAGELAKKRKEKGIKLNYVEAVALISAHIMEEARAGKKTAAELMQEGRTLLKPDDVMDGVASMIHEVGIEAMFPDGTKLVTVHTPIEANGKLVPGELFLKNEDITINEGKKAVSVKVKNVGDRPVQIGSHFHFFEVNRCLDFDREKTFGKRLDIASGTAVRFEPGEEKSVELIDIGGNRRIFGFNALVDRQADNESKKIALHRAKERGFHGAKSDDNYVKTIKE
H. pylori urease, sequence (P69996 whole entry, looked up): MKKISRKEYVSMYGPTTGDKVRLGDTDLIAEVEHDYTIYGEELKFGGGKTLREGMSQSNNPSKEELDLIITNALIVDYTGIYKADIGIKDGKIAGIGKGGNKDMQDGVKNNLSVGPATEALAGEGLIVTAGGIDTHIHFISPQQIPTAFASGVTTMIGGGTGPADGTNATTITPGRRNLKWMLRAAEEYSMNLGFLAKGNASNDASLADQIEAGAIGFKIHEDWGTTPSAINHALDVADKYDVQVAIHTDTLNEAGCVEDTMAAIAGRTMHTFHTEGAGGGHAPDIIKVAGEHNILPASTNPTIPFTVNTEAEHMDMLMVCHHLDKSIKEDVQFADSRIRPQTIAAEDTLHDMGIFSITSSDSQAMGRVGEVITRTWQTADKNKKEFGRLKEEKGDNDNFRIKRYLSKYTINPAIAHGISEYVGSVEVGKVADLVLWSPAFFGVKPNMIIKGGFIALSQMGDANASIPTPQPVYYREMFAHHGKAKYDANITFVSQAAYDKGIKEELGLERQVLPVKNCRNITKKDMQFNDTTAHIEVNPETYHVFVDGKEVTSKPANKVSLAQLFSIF

UreGΔNKXD = UreGΔNKXD (Helicobacter pylori, UniProt Q09066, D148A/K146A/N145A); test: Fluorescence-quenching titration of mutant UreGΔNKXD; format: binding, H. pylori
UreGΔNKXD, sequence (Q09066 whole entry N145A/K146A/D148A): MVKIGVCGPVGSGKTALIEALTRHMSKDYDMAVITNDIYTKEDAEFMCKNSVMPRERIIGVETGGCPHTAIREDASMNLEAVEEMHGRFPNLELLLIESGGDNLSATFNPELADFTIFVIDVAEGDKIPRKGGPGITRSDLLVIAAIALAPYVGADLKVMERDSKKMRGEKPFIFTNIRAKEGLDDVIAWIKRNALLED
Description: To further confirm the interface between UreG and small molecules generated from computational models, we then constructed an UreG mutant (UreGΔNKXD) by replacing selected residues (N145, K146, D148) with Ala to disrupt G4 motif, which abolished GTP binding of UreG (S17 Fig).
as §1

O=C(Cn1c2ccccc2c(=O)c2ccccc21)N/N=C/c1cc([N+](=O)[O-])ccc1N1CCCCCC1 [cmpd8]
IC50 (UreG [1]): 13.2 ± 7.6 µM
Normalized GTPase activity(%) (UreG [1]; log[μM] 0): 100.3%
Normalized GTPase activity(%) (UreG [1]; log[μM] 0.60206): 93.8%
Normalized GTPase activity(%) (UreG [1]; log[μM] 0.90309): 81.8%
Normalized GTPase activity(%) (UreG [1]; log[μM] 1.20412): 41.6%
Normalized GTPase activity(%) (UreG [1]; log[μM] 1.50515): 32.9%
Normalized GTPase activity(%) (UreG [1]; log[μM] 1.79588): 13.8%
Normalized GTPase activity(%) (UreG [1]; log[μM] 2.09691): 2.1%
Normalized GTPase activity(%) (UreG [1]; log[μM] 2.39794): 16.7%
inhibition at 20 µM (UreG [1]; read-out: inhibition of the GTPase activity of UreG): 37 to 72%
Ammonia in medium [2]: 0.5294 mM
Normalized cell survival (%) [2]: low viability
Normalized cell survival (%) ([2]; listed as cmp8): 23.4234%
Normalized cell survival (%) [3]: 81.1% ± 11.3% and 81.0811%
Ammonia in medium (mM) ([3]; H. pylori pre-cultured with 10 μM inhibitor, urea 10 mM, 24 h, Hp alone ca. 2.5 mM): around 1.1 mM
Ammonia in medium ([3]; H. pylori pre-cultured with 10 μM inhibitor, urea 10 mM, 24 h, Hp alone ca. 2.5 mM, listed as cmp8): 1.209 mM
OD600(pH5) (H. pylori; pH 5): 0.47
OD600 (pH7) (H. pylori; pH 7): 0.116
Kd (UreG [4]): 7.5 ± 3.6 µM
fluorescence intensity (a.u.) (UreG [4]; log(ligand[μM]) 0): 2868.33 a.u.
fluorescence intensity (a.u.) (UreG [4]; log(ligand[μM]) 0.30103): 2606 a.u.
fluorescence intensity (a.u.) (UreG [4]; log(ligand[μM]) 0.60206): 2272 a.u.
fluorescence intensity (a.u.) (UreG [4]; log(ligand[μM]) 0.90309): 1853.67 a.u.
fluorescence intensity (a.u.) (UreG [4]; log(ligand[μM]) 1.20412): 1359.33 a.u.
fluorescence intensity (a.u.) (UreG [4]; log(ligand[μM]) 1.50515): 767.233 a.u.
fluorescence intensity (a.u.) (UreG [4]; log(ligand[μM]) 1.68124): 595.5 a.u.
fluorescence intensity (a.u.) (UreG [4]; log(ligand[μM]) 1.80618): 360.267 a.u.
fluorescence intensity (a.u.) (UreG [4]; log(ligand[μM]) -0.30103): 3140.33 a.u.
fluorescence intensity (a.u.) (UreG [4]; log(ligand[μM]) -0.60206): 3427 a.u.
fluorescence intensity (a.u.) (UreG [4]; log(ligand[μM]) -1.30103): 3670 a.u.
Normalized fluo (UreG [5]): 1.54
Normalized fluo (UreG [5]; UreG + compound 50μM, Temperature 30.19): 6.82
Normalized fluo (UreG [5]; UreG + compound 50μM, Temperature 30.56): 5.74
Normalized fluo (UreG [5]; UreG + compound 50μM, Temperature 30.94): 4.76
Normalized fluo (UreG [5]; UreG + compound 50μM, Temperature 31.33): 4.03
Normalized fluo (UreG [5]; UreG + compound 50μM, Temperature 31.72): 3.29
Normalized fluo (UreG [5]; UreG + compound 50μM, Temperature 32.09): 2.61
Normalized fluo (UreG [5]; UreG + compound 50μM, Temperature 32.47): 2.02
Normalized fluo (UreG [5]; UreG + compound 50μM, Temperature 32.85): 1.65
Normalized fluo (UreG [5]; UreG + compound 50μM, Temperature 33.30): 1.24
Normalized fluo (UreG [5]; UreG + compound 50μM, Temperature 33.65): 0.72
Normalized fluo (UreG [5]; UreG + compound 50μM, Temperature 34.08): 0.51
Normalized fluo (UreG [5]; UreG + compound 50μM, Temperature 34.47): 0.31
Normalized fluo (UreG [5]; UreG + compound 50μM, Temperature 34.84): 0.0654
Normalized fluo (UreG [5]; UreG + compound 50μM, Temperature 35.21): 0.00
Normalized fluo (UreG [5]; UreG + compound 50μM, Temperature 35.58): 0.22
Normalized fluo (UreG [5]; UreG + compound 50μM, Temperature 35.96): 0.34
Normalized fluo (UreG [5]; UreG + compound 50μM, Temperature 36.34): 0.64
Normalized fluo (UreG [5]; UreG + compound 50μM, Temperature 36.71): 0.86
Normalized fluo (UreG [5]; UreG + compound 50μM, Temperature 37.48): 2.00
Normalized fluo (UreG [5]; UreG + compound 50μM, Temperature 37.86): 2.40
Normalized fluo (UreG [5]; UreG + compound 50μM, Temperature 38.23): 3.05
Normalized fluo (UreG [5]; UreG + compound 50μM, Temperature 38.61): 3.75
Normalized fluo (UreG [5]; UreG + compound 50μM, Temperature 38.99): 4.78
Normalized fluo (UreG [5]; UreG + compound 50μM, Temperature 39.38): 5.95
Normalized fluo (UreG [5]; UreG + compound 50μM, Temperature 39.76): 7.06
Normalized fluo (UreG [5]; UreG + compound 50μM, Temperature 40.14): 8.20
Normalized fluo (UreG [5]; UreG + compound 50μM, Temperature 40.52): 9.33
Normalized fluo (UreG [5]; UreG + compound 50μM, Temperature 40.91): 10.80
Normalized fluo (UreG [5]; UreG + compound 50μM, Temperature 41.29): 12.52
Normalized fluo (UreG [5]; UreG + compound 50μM, Temperature 41.66): 14.35
Normalized fluo (UreG [5]; UreG + compound 50μM, Temperature 42.04): 16.04
Normalized fluo (UreG [5]; UreG + compound 50μM, Temperature 42.42): 18.03
Normalized fluo (UreG [5]; UreG + compound 50μM, Temperature 42.81): 19.94
Normalized fluo (UreG [5]; UreG + compound 50μM, Temperature 43.18): 21.90
Normalized fluo (UreG [5]; UreG + compound 50μM, Temperature 43.56): 24.29
Normalized fluo (UreG [5]; UreG + compound 50μM, Temperature 43.94): 26.66
Normalized fluo (UreG [5]; UreG + compound 50μM, Temperature 44.33): 29.44
Normalized fluo (UreG [5]; UreG + compound 50μM, Temperature 44.71): 32.01
Normalized fluo (UreG [5]; UreG + compound 50μM, Temperature 45.09): 34.92
Normalized fluo (UreG [5]; UreG + compound 50μM, Temperature 45.47): 37.82
Normalized fluo (UreG [5]; UreG + compound 50μM, Temperature 45.85): 40.91
Normalized fluo (UreG [5]; UreG + compound 50μM, Temperature 46.23): 43.67
Normalized fluo (UreG [5]; UreG + compound 50μM, Temperature 46.60): 46.80
Normalized fluo (UreG [5]; UreG + compound 50μM, Temperature 46.99): 50.61
Normalized fluo (UreG [5]; UreG + compound 50μM, Temperature 47.37): 53.88
Normalized fluo (UreG [5]; UreG + compound 50μM, Temperature 47.75): 56.90
Normalized fluo (UreG [5]; UreG + compound 50μM, Temperature 48.13): 60.37
Normalized fluo (UreG [5]; UreG + compound 50μM, Temperature 48.52): 63.48
Normalized fluo (UreG [5]; UreG + compound 50μM, Temperature 48.89): 67.05
Normalized fluo (UreG [5]; UreG + compound 50μM, Temperature 49.28): 70.49
Normalized fluo (UreG [5]; UreG + compound 50μM, Temperature 49.65): 73.41
Normalized fluo (UreG [5]; UreG + compound 50μM, Temperature 50.04): 76.19
Normalized fluo (UreG [5]; UreG + compound 50μM, Temperature 50.42): 79.38
Normalized fluo (UreG [5]; UreG + compound 50μM, Temperature 50.80): 82.32
Normalized fluo (UreG [5]; UreG + compound 50μM, Temperature 51.19): 85.00
Normalized fluo (UreG [5]; UreG + compound 50μM, Temperature 51.56): 87.48
Normalized fluo (UreG [5]; UreG + compound 50μM, Temperature 51.96): 89.89
Normalized fluo (UreG [5]; UreG + compound 50μM, Temperature 52.34): 91.67
Normalized fluo (UreG [5]; UreG + compound 50μM, Temperature 52.72): 93.50
Normalized fluo (UreG [5]; UreG + compound 50μM, Temperature 53.10): 95.00
Normalized fluo (UreG [5]; UreG + compound 50μM, Temperature 53.48): 96.08
Normalized fluo (UreG [5]; UreG + compound 50μM, Temperature 53.86): 97.41
Normalized fluo (UreG [5]; UreG + compound 50μM, Temperature 54.24): 98.54
Normalized fluo (UreG [5]; UreG + compound 50μM, Temperature 54.62): 99.22
Normalized fluo (UreG [5]; UreG + compound 50μM, Temperature 55.00): 99.67
Normalized fluo (UreG [5]; UreG + compound 50μM, Temperature 55.38): 100.00
Normalized fluo (UreG [5]; UreG + compound 50μM, Temperature 55.77): 99.66
ΔTm at 50 µM (UreG [5]; read-out: thermal shift on the melting temperature of UreG): ~2.5 °C
inhibition at 20 µM (H. pylori urease): ~90%
Kd (UreGΔNKXD): 33.4 µM
fluorescence intensity (a.u.) (UreGΔNKXD; log(ligand[μM]) 0): 2422.67 a.u.
fluorescence intensity (a.u.) (UreGΔNKXD; log(ligand[μM]) 0.30103): 2357.67 a.u.
fluorescence intensity (a.u.) (UreGΔNKXD; log(ligand[μM]) 0.60206): 2253.67 a.u.
fluorescence intensity (a.u.) (UreGΔNKXD; log(ligand[μM]) 0.90309): 2017.33 a.u.
fluorescence intensity (a.u.) (UreGΔNKXD; log(ligand[μM]) 1.20412): 1677.67 a.u.
fluorescence intensity (a.u.) (UreGΔNKXD; log(ligand[μM]) 1.50515): 1189.33 a.u.
fluorescence intensity (a.u.) (UreGΔNKXD; log(ligand[μM]) 1.80618): 685.167 a.u.
fluorescence intensity (a.u.) (UreGΔNKXD; log(ligand[μM]) 2.10721): 316.133 a.u.
fluorescence intensity (a.u.) (UreGΔNKXD; log(ligand[μM]) -0.30103): 2519 a.u.
fluorescence intensity (a.u.) (UreGΔNKXD; log(ligand[μM]) -1.30103): 2677 a.u.
